Data reported in ChEMBL document CHEMBL1146224, “Design, synthesis, and characterization of novel iron chelators: structure-activity relationships of the 2-benzoylpyridine thiosemicarbazone series and their 3-nitrobenzoyl analogues as potent antitumor agents” (J Med Chem, 2007).

Tests used:
[1] = Partition coefficient, log P of the compound; format: physicochemical; conditions: octanol/water
SK-N-MC [2] = test: cells; conditions: Homo sapiens, 72 h
Description: Antiproliferative activity against human SK-N-MC cells after 72 hrs by MTT assay

SK-N-MC [3] = test: Inhibition of iron uptake from transferrin in SK-N-MC cells at 50 uM relative to control; format: functional, Homo sapiens; parameters: scale not given: the % may be the effect or the level left
SK-N-MC [4] = test: Effect on iron release in SK-N-MC cells; format: functional, Homo sapiens
MRC5 = test: Antiproliferative activity against human MRC5 cells after 72 hrs by MTT assay; format: cell-based; conditions: MRC5, 72 h

Row | logP [1] | IC50 (SK-N-MC [2]) [nM] | SMILES | Activity (SK-N-MC [3]) [%] | Activity (SK-N-MC [4]) [%] | IC50 (MRC5) [nM]
1 | 1.9 | 3820 | NC(=S)N/N=C(\c1cccc([N+](=O)[O-])c1)c1ccccn1 | 7 | 43 | –
2 | – | 1 | CN(C)C(=S)NN=C(c1ccccn1)c1ccccn1 | – | – | –
3 | 1.92 | 5 | S=C(N/N=C(\c1ccccc1)c1ccccn1)Nc1ccccc1 | – | – | 1860
4 | 2.14 | 130 | CNC(=S)N/N=C(\c1cccc([N+](=O)[O-])c1)c1ccccn1 | 8 | – | –
5 | 0.74 | 4 | CNC(=S)N/N=C(\c1ccccc1)c1ccccn1 | – | – | > 6250
6 | 1.7 | 13 | C=CCNC(=S)N/N=C(\c1cccc([N+](=O)[O-])c1)c1ccccn1 | 11 | – | 2390
7 | 1.29 | 4 | CN(C)C(=S)N/N=C(\c1ccccc1)c1ccccn1 | – | – | > 6250
8 | 2.53 | 14 | CCNC(=S)N/N=C(\c1cccc([N+](=O)[O-])c1)c1ccccn1 | – | – | 2310
9 | 1.92 | 4660 | NC(=S)N/N=C(\c1ccccc1)c1ccccn1 | – | 23 | –
10 | – | 4510 | CC(=O)N(O)CCCCCNC(=O)CCC(=O)N(O)CCCCCNC(=O)CCC(=O)N(O)CCCCCN [DEFEROXAMINE] | – | 7 | –
11 | – | – | Cc1ncc(CO)c(/C=N/NC(=O)c2ccncc2)c1O [PYRIDOXAL ISONICOTINOYL HYDRAZONE] | 21 | – | –
12 | – | 260 | NC(=S)N/N=C/c1ncccc1N [TRIAPINE] | – | – | –
13 | 2.69 | 4 | C=CCNC(=S)N/N=C(\c1ccccc1)c1ccccn1 | – | – | > 6250
14 | – | 710 | O=C(N/N=C/c1c(O)ccc2ccccc12)c1ccncc1 | 9 | – | –
15 | 4.01 | 2 | CCNC(=S)N/N=C(\c1ccccc1)c1ccccn1 | – | – | > 6250
